Measurements reported in patent EP4782447A1, “HETEROAROMATIC SULFONAMIDE STRUCTURAL COMPOUND, PHARMACEUTICAL COMPOSITION THEREOF, AND USE THEREOF” (Shanghai Yingli Pharmaceutical Co., Ltd, priority 2023, dated 2025).

What was measured:
HCC1395 = experiment: Inhibitory effect on cell line proliferation detected by CTG assay; assay type: cell-based; conditions: Homo sapiens, 168 h; HCC1395 cells, 7 days, CellTiter-Glo
Procedure: The relevant assays were performed in 3 84-well plates or 96-well plates. The detailed procedure is as follows: The tested cell suspension was added into 384-well or 96-well plates (excluding peripheral wells) (384-well plate: 50 µL; 96-well plate: 100 µL), and the plates were incubated in a carbon dioxide incubator overnight; specifically, HCC1395 and HCC1428 cells were incubated in a 5% carbon dioxide incubator at 37°C overnight. The tested compounds (9-10 compound concentration gradients via 3-fold serial dilution) were added into the corresponding well by a HPD300 micro-dosing instrument. The cell plates were incubated in a carbon dioxide incubator for 7 days; specifically, for HCC1395 and HCC1428 cells, maintaining the incubation condition at 5% carbon dioxide and 37°C throughout this period. On the day of detection, firstly, the 384-well or 96-well plates were equilibrated at room temperature for 10-30 minutes, and then CellTiter-Glo reagent was added into each plate (384-well plate: 25 µL; 96-well plate: 100 µL), the plates were shaked for 10 minutes in the dark place, and incubated for another 10 minutes. The plates were placed into the Victor NIVO microplate reader for measurement. The efficacy inhibition rate curves were ploted using XLFit software and the IC50 values were calculated. Table 2 Anti-proliferative activity assay results of the representative compounds of the present disclosure against cell lines

[1] = Pharmacokinetic study of mice via intravenous injection and oral administration; assay type: in vivo; conditions: mouse, male CD-1 mice, plasma, a: mixed blood samples, b: mean of individual samples
Procedure: Plasma samples from male C57BL/6J mice or male CD-1 mice after intravenous injection and oral administration dosing with the tested compound, were collected from the orbital venous plexus at 8-9 time points (e.g., 5 min, 15 min, 30 min, 1 h, 2 h, 4 h, 7 h, 24 h or 5 min, 15 min, 30 min, 1 h, 2 h, 4 h, 6 h, 8 h, 24 h). The collected blood samples were transferred to microcentrifuge tubes containing EDTA-K2 anticoagulant, centrifuged at 4000 g and 4°C for 5 min. The resulting supernatant was pipetted and stored in a -75°C ± 15°C refrigerator . The compound concentrations in plasma samples at different time points were determined via LC-MS/MS, and the relevant pharmacokinetic parameters were calculated using WinNonlin software. Table 3-1 Pharmacokinetic determination results of the representative compounds of the present disclosure

[2] = system: HCC1428 cell-derived tumors; experiment: In vivo pharmacodynamic study, subcutaneously implanted HCC1428 tumor model; conditions: 30 mg/kg PO, BID*28; BALB/c nude mice with subcutaneous HCC1428 tumors; start at average tumor volume 195 mm^3
Procedure: Estrogen was administered to BALB/c nude mice via injection twice weekly until the end of the experiment, subcutaneous inoculation with 1×10^7 HCC1428 cells (suspended in 100 µL of RPMI medium supplemented with Matrigel at a 1:1 volume ratio). Grouping and drug administration were initiated when the average tumor volume reached 150-200 mm^3. During the experiment, the body weight of the mice and tumor size were measured twice weekly, and the clinical symptoms of the animals were observed and recorded daily. The length (a) and width (b) of the tumors were measured using a vernier caliper, and the tumor volume was calculated according to the formula: TV = a×b^2/2. The tumor growth inhibition rate (TGI, %) was calculated based on the tumor volume using the formula: TGI (%) = [1 - (Ti - T0)/ (Vi - V0)] ×100%, wherein Ti represents the mean tumor volume of the treatment group on the i-th day after grouping, T0 represents the mean tumor volume of the treatment group at the time of grouping, Vi represents the mean tumor volume of the vehicle control group on the i-th day after grouping, and V0 represents the mean tumor volume of the vehicle control group at the time of grouping.

PARG (389-976) = biological target: T1, PARG (389-976) (Homo sapiens, UniProt Q86W56); experiment: PARG enzyme inhibition assay (TR-FRET); assay type: biochemical; conditions: PARG 1.5 pM, Bio PARylated His-TEV-PARP1 substrate 12 nM
T1 construct: 5 µL of PARG (389-976) (manufactured by ChemPartner Co., Ltd.) was added into the 384-well plate; purchased ChemPartner Co., Ltd
Procedure: The in vitro PARG assay experiment was performed in a standard 384-well plate with a total reaction volume of 15 µL. In a buffer solution (50 mM Tris-HCl pH 7.5, 30 mM KCl, 1 mM EDTA, 3 mM DTT, 0.01% Tween-20, 0.025% BSA), 5 µL of PARG (389-976) (manufactured by ChemPartner Co., Ltd.) was added into the 384-well plate containing test compounds (with various concentrations) to obtain a final concentration of 1.5 pM, followed by incubation at room temperature for 30 minutes. Subsequently, 5 µL of Bio PARylated His-TEV-PARP1 (2-1014) substrate (manufactured by ChemPartner Co., Ltd.) was added into the above reaction mixture to obtain a final concentration of 12 nM, and the reaction was carried out at room temperature for 30 minutes after the addition was completed. Then, 5 µL of detection reagent was added. The detection reagent was prepared by buffer solution (50 mM Tris-HCl pH 7.5, 30 mM KCl, 1 mM EDTA, 3 mM DTT, 0.01% Tween-20, 0.025% BSA) consisting of 3 µM compound PDD00017273, 9 nM Mab anti-6HIS XL665 (Cisbio: 61HISXLA) and 0.9 nM streptavidin cryptate (Cisbio: 610SATLA). All three components were used at 3X working concentration, corresponding to final concentrations of 1 µM, 3 nM and 0.3 nM, respectively. After incubation at room temperature for 120 minutes in the dark place, the TR-FRET signals were measured at an excitation wavelength (Ex) of 340 nm, emission wavelengths (Em) of 665 nm and 615 nm. The ratio for each well was calculated as Em 665 / Em 615, and the compound inhibition rate was determined based on the obtained data. Table 1 Biochemical activity against PARG of the representative compounds of the rresent invention

[3] = Intravenous administration (5mg/kg)
[4] = in vivo, Intravenous administration (5mg/kg)
[5] = in vivo, Oral administration (10mg/kg)

T1 sequence (Q86W56 389-976): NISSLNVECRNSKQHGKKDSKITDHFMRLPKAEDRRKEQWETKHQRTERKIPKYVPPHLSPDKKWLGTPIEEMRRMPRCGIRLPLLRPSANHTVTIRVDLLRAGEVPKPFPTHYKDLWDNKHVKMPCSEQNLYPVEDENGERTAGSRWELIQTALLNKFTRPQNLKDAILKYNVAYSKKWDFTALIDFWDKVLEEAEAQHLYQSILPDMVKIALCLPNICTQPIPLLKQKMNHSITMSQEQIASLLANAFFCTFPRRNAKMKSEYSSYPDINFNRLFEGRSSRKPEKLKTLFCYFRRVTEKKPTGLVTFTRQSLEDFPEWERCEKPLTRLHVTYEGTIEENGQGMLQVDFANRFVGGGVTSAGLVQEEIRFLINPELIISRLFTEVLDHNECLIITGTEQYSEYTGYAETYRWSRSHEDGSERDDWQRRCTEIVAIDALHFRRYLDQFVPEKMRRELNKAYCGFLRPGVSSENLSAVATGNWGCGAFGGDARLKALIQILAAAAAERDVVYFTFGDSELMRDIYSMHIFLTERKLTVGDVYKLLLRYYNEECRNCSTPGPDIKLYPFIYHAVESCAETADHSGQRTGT

| Structure (SMILES) | IC50 (HCC1395) | AUC(0-inf) [1, 3] | AUC(0-t) [1, 3] | clearance [1, 3] | AUC(0-inf) ([1]; Oral administration (10mg/kg)) | AUC(0-t) ([1]; Oral administration (10mg/kg)) | Cmax ([1]; Oral administration (10mg/kg)) | IC50 (PARG (389-976)) | also measured |
| --- | --- | --- | --- | --- | --- | --- | --- | --- | --- |
| CC(C)S(=O)(=O)N1CC=C(c2c(F)c(S(=O)(=O)NC3(C#N)CC3)cc3c(-c4nnc(C(F)(F)F)s4)nn(C)c23)CC1 [Compound 1] | 0.0949 µM | 44100 ng·h/mL | 44000 ng·h/mL | 1.89 mL/min/kg | 32800 ng·h/mL | 32800 ng·h/mL | 4320 ng/mL | 0.23 nM | Tumor Growth Inhibition Rate TGI (%) [2]: 106.8% |
| CC1=C(c2c(F)c(S(=O)(=O)NC3(C#N)CC3)cc3c(-c4nnc(C(F)(F)F)s4)nn(C)c23)CCN(S(=O)(=O)C(C)C)C1 [Compound 2] | 0.0368 µM | 50100 ng·h/mL | 49600 ng·h/mL | 1.68 mL/min/kg | 46900 ng·h/mL | 46700 ng·h/mL | 5370 ng/mL | 0.3 nM |  |
| CC(C)S(=O)(=O)N1CC=C(c2c(F)c(S(=O)(=O)NC3(C#N)CC3)cc3c(-c4nnc(C(F)F)s4)nn(C)c23)CC1 [Compound 3] | 0.0992 µM | 33700 ng·h/mL | 33700 ng·h/mL | 2.47 mL/min/kg | 12000 ng·h/mL | 12000 ng·h/mL | 3300 ng/mL | 0.19 nM |  |
| CC1=C(c2c(F)c(S(=O)(=O)NC3(C#N)CC3)cc3c(-c4nnc(C(F)F)s4)nn(C)c23)CCN(S(=O)(=O)C(C)C)C1 [Compound 4] | 0.0445 µM | 20300 ng·h/mL | 18400 ng·h/mL | 4.17 mL/min/kg | 11300 ng·h/mL | 11000 ng·h/mL | 2010 ng/mL | 0.48 nM |  |
| CC1=C(c2c(F)c(S(=O)(=O)NC3(C)CC3)cc3c(-c4nnc(C(F)(F)F)s4)nn(C)c23)CCN(S(=O)(=O)C(C)C)C1 [Compound 5] | 0.043 µM |  |  |  |  |  |  | 0.43 nM |  |
| CC(C)S(=O)(=O)N1CC=C(c2c(F)c(S(=O)(=O)NC3(C)CC3)cc3c(-c4nnc(C(F)(F)F)s4)nn(C)c23)CC1 [Compound 6] | 0.0913 µM |  |  |  |  |  |  | 0.35 nM |  |
| CC(C)S(=O)(=O)N1CC=C(c2c(F)c(S(=O)(=O)NC3(C)CC3)cc3c(-c4nnc(C(F)F)s4)nn(C)c23)CC1 [Compound 7] | 0.074 µM |  |  |  |  |  |  | 0.21 nM |  |
| CC1=C(c2c(F)c(S(=O)(=O)NC3(C)CC3)cc3c(-c4nnc(C(F)F)s4)nn(C)c23)CCN(S(=O)(=O)C(C)C)C1 [Compound 8] | 0.0322 µM |  |  |  |  |  |  | 0.17 nM |  |
| CC(C)C(=O)N1CC=C(c2c(F)c(S(=O)(=O)NC3(C#N)CC3)cc3c(-c4nnc(C(F)F)s4)nn(C)c23)CC1 [Compound 9] | 0.0446 µM | 8560 ng·h/mL | 8550 ng·h/mL | 9.8 mL/min/kg | 11500 ng·h/mL | 11500 ng·h/mL | 6160 ng/mL | 0.56 nM |  |
| CC(C)C(=O)N1CC=C(c2c(F)c(S(=O)(=O)NC3(C#N)CC3)cc3c(-c4nnc(C(F)(F)F)s4)nn(C)c23)CC1 [Compound 10] |  |  |  |  |  |  |  | 1.24 nM |  |
| CC(C)C(=O)N1CC=C(c2c(F)c(S(=O)(=O)NC3(C)CC3)cc3c(-c4nnc(C(F)F)s4)nn(C)c23)CC1 [Compound 11] |  |  |  |  |  |  |  | 0.7 nM |  |
| CCC1=C(c2c(F)c(S(=O)(=O)NC3(C#N)CC3)cc3c(-c4nnc(C(F)(F)F)s4)nn(C)c23)CCN(S(=O)(=O)C(C)C)C1 [Compound 13] | 0.0313 µM |  |  |  |  |  |  |  | AUC(0-inf) [1, 4]: 35900 ng·h/mL; AUC(0-t) [1, 4]: 35900 ng·h/mL; clearance [1, 4]: 2.32 mL/min/kg; AUC(0-inf) [1, 5]: 25400 ng·h/mL; AUC(0-t) [1, 5]: 25400 ng·h/mL; Cmax [1, 5]: 2500 ng/mL |
